pEC50: −log10 of the molar value.
Key:
[1] = tested on: Respiratory syncytial virus recombinant with luciferase (RSV-Luc5); assay: NHBE RSV-Luc5 384-well assay (EC50 RSVFLUC NHBE-384 v2), Example W; type: cell-based; details: human respiratory syncytial virus, 72 h, read-out: EC50 RSV FLUC NHBE 384 V2 (per Ex. W)
Text: Example W: NHBE RSV-Luc5 384-Well Assay (EC50 RSVFLUC NHBE-384 v2)
Normal Human Bronchial Epithelial (NHBE) cells were purchased from Lonza (Walkersville, MD Cat #CC2540) and maintained in BEGM Bronchial Epithelial Cell Growth Medium BulletKit (Lonza CC-3170).
Cells were thawed, expanded, and were used for experiments at passage 2. Respiratory syncytial virus recombinant with luciferase (RSV-Luc5) (≥1×10^7 Infectious Units/mL (IU/mL) determined by TCID50) was purchased from Microbiologics (Saint Cloud, MN). Viral replication was determined in NHBE cells in the following manner.
(§1) Compounds are prepared in 100% DMSO in 384-well polypropylene plates (Greiner, Monroe, NC, Cat #784201) with 8 compounds per plate in grouped replicates of 4 at 10 serially diluted concentrations (1:3). The serially diluted compounds were transferred to low dead volume Echo plates (Labcyte, Sunnyvale, CA, Cat #LP-0200).
The test compounds were spotted to 384-well assay plates (Greiner, Monroe, NC, Cat #781091) at 200 nL per well using an Echo acoustic dispenser (Labcyte, Sunnyvale, CA). NHBE cells were harvested and suspended in BEGM Bronchial Epithelial Cell Growth Medium BulletKit and seeded to the pre-spotted assay plates at 5,000 cells per well in 30 μL. RSV-Luc5 virus was diluted in BEGM Bronchial Epithelial Cell Growth Medium BulletKit at 500,000 Infectious Units (IU) per mL and 10 μL per well was added to the assay plates containing cells and compounds, for an MOI of 1. The assay plates were incubated for 3 days at 37° C. and 5% CO2. At the end of incubation, One-Glo reagent (Promega, Madison, WI, Cat #E6120) was prepared. The assay plates and One-Glo reagent were equilibrated to room temperature for at least 15 minutes. 40 μL per well of One-Glo reagent was added and the plates were incubated at room temperature for 15 minutes before reading the luminescence signal on an EnVision multimode plate reader (Perkin Elmer, Waltham, MA). Remdesivir was used as positive control and DMSO was used as negative control. Values were normalized to the positive and negative controls (as 0% and 100% replication, respectively) and data was fitted using non-linear regression analysis by Gilead's dose response tool. The EC50 value for each compound was defined as the concentration reducing the viral replication by 50%.

[2] = tested on: Respiratory syncytial virus recombinant with luciferase (RSV-Luc5); assay: HEp-2 RSV-Luc5 384-well assay (EC50 RSVFLUC Hep2-384 v2), Example V; type: cell-based; details: human respiratory syncytial virus, HEp-2, 72 h, read-out: EC50 RSV FLuc Hep-2 384 V2 (per Ex. V)
Text: Example V: HEp-2 RSV-Luc5 384-Well Assay (EC50 RSVFLUC Hep2-384 v2)
HEp-2 cell line was purchased from ATCC (Manassas, VA Cat #CCL-23) and maintained in Dulbecco's […] (DMEM) (Corning, New York, NY, Cat #15-018CM) supplemented with 10% fetal bovine serum (FBS) (Hyclone, Logan, UT, Cat #SH30071-03) and 1× Penicillin-Streptomycin-L-Glutamine (Corning, New York, NY, Cat #30-009-C1). Cells were passaged 2 times per week to maintain sub-confluent densities and were used for experiments at passage 5-20. Respiratory syncytial virus recombinant with luciferase (RSV-Luc5) (≥1×107 TCID50/ml) was purchased from Microbiologics (Saint Cloud, MN). Viral replication was determined in HEp-2 cells in the following manner.
as §1
The test compounds were spotted to 384-well assay plates (Greiner, Monroe, NC, Cat #781091) at 200 nL per well. HEp-2 cells were harvested and suspended in DMEM (supplemented with 10% FBS and 1× Penicillin-Streptomycin-L-Glutamine) and seeded to the pre-spotted assay plates at 4,000 cells per well in 30 μL. RSV-Luc5 viruses were diluted in DMEM (supplemented with 10% FBS and 1× Penicillin-Streptomycin-L-(Glutamine) at 200,000 Infectious Units (IU) per mL and 10 μL per well was added to the assay plates containing cells and compounds, for an MOI=0.5. The assay plates were incubated for 3 days at 37° C. and 5% CO2. At the end of incubation, One-Glo reagent (Promega, Madison, WI, Cat #E6120) was prepared. The assay plates and One-Glo reagent were equilibrated to room temperature for at least 15 minutes. 40 μL per well of One-Glo reagent was added and the plates were incubated at room temp for 15 minutes before reading the luminescence signal on an EnVision multimode plate reader (Perkin Elmer, Waltham, MA). Remdesivir was used as positive control and DMSO was used as negative control. Values were normalized to the positive and negative controls (as 0% and 100% replication, respectively) and data was fitted using non-linear regression analysis by Gilead's dose response tool. The EC50 value for each compound was then determined as the concentration reducing the viral replication by 50%.

Work on `N#C[C@]1(COC(=O)OC2CCCCC2)O[C@@H](c2ccc3c(N)ncnn23)[C@H](O)[C@@H]1O` [Compound 21, ((2R,3S,4R,5S)-5-(4-aminopyrrolo[2,1-f][1,2,4]triazin-7-yl)-2-cyano-3,4-dihydroxytetrahydrofuran-2-yl)methyl cyclohexyl carbonate] yielded a pEC50 [1] of 5.16 and a pEC50 [2] of 4.66.

Molecule `CCOC(=O)OC[C@@]1(C#N)O[C@@H](c2ccc3c(N)ncnn23)[C@H](O)[C@@H]1O` [Compound 22, ((2R,3S,4R,5S)-5-(4-aminopyrrolo[2,1-f][1,2,4]triazin-7-yl)-2-cyano-3,4-dihydroxytetrahydrofuran-2-yl)methyl ethyl carbonate] has a pEC50 [1] of 5.18 and a pEC50 [2] of 4.58.

For `N#C[C@]1(COC(=O)OC2CC2)O[C@@H](c2ccc3c(N)ncnn23)[C@H](O)[C@@H]1O` [Compound 23, ((2R,3S,4R,5S)-5-(4-aminopyrrolo[2,1-f][1,2,4]triazin-7-yl)-2-cyano-3,4-dihydroxytetrahydrofuran-2-yl)methyl cyclopropyl carbonate], the pEC50 [1] was 5.11 and the pEC50 [2] was 4.81.

`N#C[C@]1(COC(=O)O[C@@H]2CCOC2)O[C@@H](c2ccc3c(N)ncnn23)[C@H](O)[C@@H]1O` [Compound 24, ((2R,3S,4R,5S)-5-(4-aminopyrrolo[2,1-f][1,2,4]triazin-7-yl)-2-cyano-3,4-dihydroxytetrahydrofuran-2-yl)methyl ((R)-tetrahydrofuran-3-yl) carbonate] showed a pEC50 [1] of 5.14 and a pEC50 [2] of 4.53.

Work on `CC[C@H](C)COC(=O)OC[C@@]1(C#N)O[C@@H](c2ccc3c(N)ncnn23)[C@H](O)[C@@H]1O` [Compound 28, ((2R,3S,4R,5S)-5-(4-aminopyrrolo[2,1-f][1,2,4]triazin-7-yl)-2-cyano-3,4-dihydroxytetrahydrofuran-2-yl)methyl ((S)-2-methylbutyl) carbonate] yielded a pEC50 [1] of 5.03 and a pEC50 [2] of 4.74.

`N#C[C@]1(COC(=O)OCc2ccccc2)O[C@@H](c2ccc3c(N)ncnn23)[C@H](O)[C@@H]1O` [Compound 29, ((2R,3S,4R,5S)-5-(4-aminopyrrolo[2,1-f][1,2,4]triazin-7-yl)-2-cyano-3,4-dihydroxytetrahydrofuran-2-yl)methyl benzyl carbonate] showed a pEC50 [1] of 4.96 and a pEC50 [2] of 4.71.

Work on `N#C[C@]1(COC(=O)OCC2CCCC2)O[C@@H](c2ccc3c(N)ncnn23)[C@H](O)[C@@H]1O` [Compound 30, ((2R,3S,4R,5S)-5-(4-aminopyrrolo[2,1-f][1,2,4]triazin-7-yl)-2-cyano-3,4-dihydroxytetrahydrofuran-2-yl)methyl (cyclopentylmethyl) carbonate] yielded a pEC50 [1] of 5.12 and a pEC50 [2] of 4.64.

`CCC(CC)COC(=O)OC[C@@]1(C#N)O[C@@H](c2ccc3c(N)ncnn23)[C@H](O)[C@@H]1O` [Compound 31, ((2R,3S,4R,5S)-5-(4-aminopyrrolo[2,1-f][1,2,4]triazin-7-yl)-2-cyano-3,4-dihydroxytetrahydrofuran-2-yl)methyl (2-ethylbutyl) carbonate] showed a pEC50 [1] of 5.06 and a pEC50 [2] of 4.69.

Molecule `N#C[C@]1(COC(=O)OCC2CC2)O[C@@H](c2ccc3c(N)ncnn23)[C@H](O)[C@@H]1O` [Compound 32, ((2R,3S,4R,5S)-5-(4-aminopyrrolo[2,1-f][1,2,4]triazin-7-yl)-2-cyano-3,4-dihydroxytetrahydrofuran-2-yl)methyl (cyclopropylmethyl) carbonate] has a pEC50 [1] of 5.15 and a pEC50 [2] of 4.69.

Molecule `N#C[C@]1(COC(=O)O[C@H]2CCOC2)O[C@@H](c2ccc3c(N)ncnn23)[C@H](O)[C@@H]1O` [Compound 33, ((2R,3S,4R,5S)-5-(4-aminopyrrolo[2,1-f][1,2,4]triazin-7-yl)-2-cyano-3,4-dihydroxytetrahydrofuran-2-yl)methyl ((S)-tetrahydrofuran-3-yl) carbonate] has a pEC50 [1] of 5.10 and a pEC50 [2] of 4.60.

Molecule `CCCOCCOC(=O)OC[C@@]1(C#N)O[C@@H](c2ccc3c(N)ncnn23)[C@H](O)[C@@H]1O` [Compound 34, ((2R,3S,4R,5S)-5-(4-aminopyrrolo[2,1-f][1,2,4]triazin-7-yl)-2-cyano-3,4-dihydroxytetrahydrofuran-2-yl)methyl (2-propoxyethyl) carbonate] has a pEC50 [1] of 5.19 and a pEC50 [2] of 4.75.

`CC(C)(C)CCOC(=O)OC[C@@]1(C#N)O[C@@H](c2ccc3c(N)ncnn23)[C@H](O)[C@@H]1O` [Compound 35, ((2R,3S,4R,5S)-5-(4-aminopyrrolo[2,1-f][1,2,4]triazin-7-yl)-2-cyano-3,4-dihydroxytetrahydrofuran-2-yl)methyl (3,3-dimethylbutyl) carbonate] gave a pEC50 [1] of 5.24 and a pEC50 [2] of 4.72.

In the case of `N#C[C@]1(COC(=O)OC2CC3(CCC3)C2)O[C@@H](c2ccc3c(N)ncnn23)[C@H](O)[C@@H]1O` [Compound 36, ((2R,3S,4R,5S)-5-(4-aminopyrrolo[2,1-f][1,2,4]triazin-7-yl)-2-cyano-3,4-dihydroxytetrahydrofuran-2-yl)methyl spiro[3.3]heptan-2-yl carbonate], the pEC50 [1] was 5.07 and the pEC50 [2] was 4.85.

In the case of `CC1(C)CC(OC(=O)OC[C@@]2(C#N)O[C@@H](c3ccc4c(N)ncnn34)[C@H](O)[C@@H]2O)C1` [Compound 37, ((2R,3S,4R,5S)-5-(4-aminopyrrolo[2,1-f][1,2,4]triazin-7-yl)-2-cyano-3,4-dihydroxytetrahydrofuran-2-yl)methyl (3,3-dimethylcyclobutyl) carbonate], the pEC50 [1] was 5.13 and the pEC50 [2] was 4.67.

`COC[C@@H](C)OC(=O)OC[C@@]1(C#N)O[C@@H](c2ccc3c(N)ncnn23)[C@H](O)[C@@H]1O` [Compound 38, ((2R,3S,4R,5S)-5-(4-aminopyrrolo[2,1-f][1,2,4]triazin-7-yl)-2-cyano-3,4-dihydroxytetrahydrofuran-2-yl)methyl ((R)-1-methoxypropan-2-yl) carbonate] gave a pEC50 [1] of 5.12 and a pEC50 [2] of 4.30.

In the case of `N#C[C@]1(COC(=O)O[C@@H]2C[C@@H]3C[C@@H]3C2)O[C@@H](c2ccc3c(N)ncnn23)[C@H](O)[C@@H]1O` [Compound 39, ((2R,3S,4R,5S)-5-(4-aminopyrrolo[2,1-f][1,2,4]triazin-7-yl)-2-cyano-3,4-dihydroxytetrahydrofuran-2-yl)methyl ((1R,3r,5S)-bicyclo[3.1.0]hexan-3-yl) carbonate], the pEC50 [1] was 5.11 and the pEC50 [2] was 4.55.

Work on `C[C@H]1CC[C@H](OC(=O)OC[C@@]2(C#N)O[C@@H](c3ccc4c(N)ncnn34)[C@H](O)[C@@H]2O)CC1` [Compound 40, ((2R,3S,4R,5S)-5-(4-aminopyrrolo[2,1-f][1,2,4]triazin-7-yl)-2-cyano-3,4-dihydroxytetrahydrofuran-2-yl)methyl ((1r,4R)-4-methylcyclohexyl) carbonate] yielded a pEC50 [1] of 5.13 and a pEC50 [2] of 4.57.
